# Data reported in patent US20230210846A1, “TREATMENT FOR AMYLOIDOSIS” (Zeno Management,Inc., priority 2020, published 2023).
# How the values were obtained:
# KMS-12-BM cells = experiment: Tumor growth study in KMS-12-BM mouse model; type: in vivo; details: for tumor growth inhibition (TGI): KMS-12-BM model
# Description: Tumor volumes were evaluated twice per week to calculate tumor volume over time, and mice were weighed twice per week as a surrogate for signs of toxicity. […] Td and Cd are the mean tumor volumes of the treated and control animals, and T0 and C0 are the mean tumor volumes of the treated and control animals at the start of the experiment.
# (§1) Tumor volumes were evaluated twice per week to calculate tumor volume over time, and mice were weighed twice per week as a surrogate for signs of toxicity. Tumor growth inhibition (TGI) was calculated using the following equation TGI=(1−(Td−T0)/(Cd−C0))×100%. Td and Cd are the mean tumor volumes of the treated and control animals, and T0 and C0 are the mean tumor volumes of the treated and control animals at the start of the experiment.
# as §1
# OPM-2 cells = experiment: Tumor growth study in OPM-2 mouse model; type: in vivo; details: OPM-2 subcutaneous model, 100 mg/kg oral gavage once a day, after 10 days
# Description: It is understood that compound activity in MM models is predictive of activity in amyloidosis (e.g. AL amyloidosis) models and/or patients.
# Mice were inoculated with OPM-2 cells subcutaneously on the right flank with the single cell suspension of 95% viable tumor cells (1×10^7) in 200 μL RPMI-1640 Matrigel mixture (1:1 ratio) without serum for the tumor development. The treatment was started when the mean tumor size reached approximately 200 mm^3, with individual tumor size ranging from 180-220 mm^3. Animals were randomly distributed into treatment groups of 10 animals each and dosed with either vehicle (i.e. “Vehicle A”) or a compound of Formula (A) having the structure
# (“Compound (A)”) at 100 mg/kg administered by oral gavage once a day. Tumor volumes were evaluated twice per week to calculate tumor volume over time, and mice were weighed twice per week as a surrogate for signs of toxicity. Tumor growth inhibition (TGI) efficiency was calculated using the following equation TGI=(1−(Td−T0)/(Cd−C0))×100%. Td and Cd are the mean tumor volumes of the treated and control animals, and T0 and C0 are the mean tumor volumes of the treated and control animals at the start of the experiment.
compound,measurement,setting,value
CC1(C)CCC(CN2CCN(c3ccc(C(=O)NS(=O)(=O)c4ccc(NC[C@H]5CC[C@](C)(O)CC5)c([N+](=O)[O-])c4)c(Oc4cnc5[nH]ccc5c4)c3)CC2)=C(C23CC(C(F)F)(C2)C3)C1 [Compound (A)],tumor growth inhibition (TGI),"KMS-12-BM cells; single agent 50 mg/kg p.o. qd x21, day 14",48.7%
same,TGI efficacy (tumor growth inhibition),"KMS-12-BM cells; KMS-12-BM subcutaneous model, single agent 100 mg/kg p.o. qd, day 14",62.8%
same,TGI efficacy (tumor growth inhibition),OPM-2 cells,46%
"CC(C)C[C@H](NC(=O)[C@H](Cc1ccccc1)NC(=O)c1cnccn1)B(O)O [bortezomib, reference compound]",tumor growth inhibition (TGI),"KMS-12-BM cells; single agent 0.5 mg/kg IP BIW, day 14",46.5%
"C[C@@H]1C[C@H]2[C@@H]3CCC4=CC(=O)C=C[C@]4(C)[C@@]3(F)[C@@H](O)C[C@]2(C)[C@@]1(O)C(=O)CO [dexamethasone, reference compound]",tumor growth inhibition (TGI),"KMS-12-BM cells; single agent 1 mg/kg IP 5 days on 2 days off, day 14",22.5%
